pIC50: −log10 of the molar value.
Columns and labels:
[1] = test system: MDA-MB-231; test: Anticancer activity against human MDA-MB-231 cells assessed as cell viability incubated for 48 hrs by MTT assay; conditions: MDA-MB-231, 48 h
[2] = test system: MDA-MB-436; test: Anticancer activity against human MDA-MB-436 cells assessed as cell viability incubated for 48 hrs by MTT assay; conditions: MDA-MB-436, 48 h

SMILES | pIC50 [1] | pIC50 [2]
CN1CCN(c2ccc(-c3cc4c(N5CCN(C(=O)Nc6cc(C(F)(F)F)ccc6F)CC5)ncnc4s3)cc2)CC1 | 5.04 | 5.05
C=CS(=O)(=O)N1CCN(c2ncnc3sc(-c4cc(Br)cnc4F)cc23)CC1 | 4.62 | 4.55
C=CS(=O)(=O)N1CCN(c2ncnc3ccc(-c4ccccc4)cc23)CC1 | 4.32 | 4.63
CN1CCN(c2ccc(-c3cc4c(N5CCN(S(=O)(=O)/C=C/c6ccccc6)CC5)ncnc4s3)cc2)CC1 | 5.23 | 5.06
C=CS(=O)(=O)N1CCN(c2ncnc3sc(-c4ccc(OC)cc4)cc23)CC1 | 4.52 | 4.55
CCS(=O)(=O)N1CCN(c2ncnc3sc(-c4ccc(N5CCN(C)CC5)cc4)cc23)CC1 | 5.13 | 4.98
CN1CCN(c2ccc(-c3cc4c(N5CCN(C(=O)Nc6ccc(OC(F)(F)F)cc6)CC5)ncnc4s3)cc2)CC1 | 5.34 | 5.20
C=CS(=O)(=O)N1CCN(c2ncnc3sc(-c4ccc(F)nc4)cc23)CC1 | 4.80 | 4.76
C=CS(=O)(=O)N1CCN(c2ncnc3sc(-c4cccs4)cc23)CC1 | 4.47 | 4.41
C=CS(=O)(=O)N1CCN(c2ncnc3sc(-c4ccc(N5CCN(C)CC5)cc4)cc23)CC1 | 5.12 | 5.06
C=CS(=O)(=O)N1CCN(c2ncnc3sc(-c4cccc5ccccc45)cc23)CC1 | 4.63 | 4.55
C=CS(=O)(=O)N1CCN(c2ncnc3sc(-c4ccc(C(F)(F)F)cc4)cc23)CC1 | 5.19 | 5.15
C=CS(=O)(=O)N1CCN(c2nc(OC[C@H]3CCCN3C)nc3sc(-c4ccc(N5CCN(C)CC5)cc4)cc23)CC1 | 6.12 | 6.27
C=CS(=O)(=O)N1CCN(c2ncnc3sc(-c4ccc(C#N)cc4)cc23)CC1 | 5.09 | 5.04
C=CS(=O)(=O)N1CCN(c2ncnc3sc(-c4ccc(C(=O)N5CCN(C)CC5)cc4)cc23)CC1 | 5.06 | 5.02
C=CS(=O)(=O)N1CCN(c2ncnc3sc(-c4cnn(Cc5ccccc5)c4)cc23)CC1 | 4.72 | 4.74
CN1CCN(c2ccc(-c3cc4c(N5CCN(C(=O)Nc6ccc(Cl)cc6)CC5)ncnc4s3)cc2)CC1 | 5.26 | 5.03
C=CS(=O)(=O)N1CCN(c2ccn3ncc(-c4ccc(N5CCOCC5)cc4)c3n2)CC1 | 4.37 | 4.79
C=CS(=O)(=O)N1CCN(c2ccn3ncc(-c4ccccc4)c3n2)CC1 | 4.42 | 4.71
C=CS(=O)(=O)N1CCN(c2nc(OC[C@H]3CCCN3C)nc3sc(-c4ccc(C(=O)N5CCN(C)CC5)cc4)cc23)CC1 | 5.38 | 5.46
CN1CCN(c2ccc(-c3cc4c(N5CCN(S(=O)(=O)C6CC6)CC5)ncnc4s3)cc2)CC1 | 4.94 | 4.98
C=CS(=O)(=O)N1CCN(c2ncnc3sc(-c4ccc(N5CCN(C)CC5)cc4)cc23)[C@@H](C)C1 | 5.21 | 5.16
CC(C)c1cccc(C(C)C)c1NC(=O)N1CCN(c2ncnc3sc(-c4ccc(N5CCN(C)CC5)cc4)cc23)CC1 | 5.07 | 4.95
C=CS(=O)(=O)N1CCN(c2ncnc3sc(-c4cn(C)nc4C(F)(F)F)cc23)CC1 | 4.98 | 4.82
CN1CCN(c2ccc(-c3cc4c(N5CCN(C(=O)Nc6cccc(F)c6)CC5)ncnc4s3)cc2)CC1 | 4.88 | 4.74
C=CS(=O)(=O)N1CCN(c2ncnc3sc(-c4ccnc(Cl)c4)cc23)CC1 | 4.56 | 4.52

— ChEMBL document CHEMBL4837240 (J Med Chem, 2021)
